The text below walks through data of patent US8802723B2, “Metabolic syndrome-improving agent and medicine, supplement, functional food and food additive containing the same” (ARKRAY, Inc., priority 2005, dated 2014).

Each structure is given as a SMILES string.

The test system of assay [1] is VLDL secretion in HepG2 cells. In words: VLDL secretion inhibition experiment in HepG2 cells (apoB100 ELISA). The assay is classed as cell-based, human. As to conditions: for VLDL secretion ratio (%): HepG2, 30 hours, measurement group/control group, control (DMSO) = 100, average ± standard error. The protocol:
FCS, a non-essential amino acid, sodium pyruvate and a glutamine solution were mixed such that the final concentrations of the FCS, the non-essential amino acid, the sodium pyruvate and the glutamine solution respectively were 10%, 1%, 1 mM and 2 mM, and added to an MEM medium (manufactured by SIGMA). They were mixed aseptically on a clean bench. In a 100 mm/Collagen-Coated Dish (trade name, manufactured by Iwaki Glass Works, Co.), the medium of HepG2 cells (human hepatic cells) that had been cultured to 80% to 90% confluence was removed with a pipette and washed with 2 mL of 1×PBS. After adding 2 mL of trypsin-EDTA and rotating the above-noted dish slowly so that trypsin-EDTA spread over the entire cells, this trypsin-EDTA was removed with a pipette. The dish was allowed to stand still for 15 minutes in a CO2 incubator (37° C., 5%), and then 4 mL of a growth medium was added to this dish, followed by mixing by pipetting. Then, 2 mL of this mixture was added to each of two dishes to which 3 mL of a growth medium was added in advance. These dishes were covered with lids and moved crisscross so as to mix the content. The cells were checked using a microscope (manufactured by Olympus Corporation) and cultured in a CO2 incubator (37° C., 5%). Three or four days later, after checking that 80% to 90% confluence was achieved using the microscope, subculture was carried out in a similar manner, followed by cell culture.
First, a VLDL standard solution was prepared. The VLDL standard solution was prepared by diluting 1.169 mg/mL of human VLDL standard (trade name, manufactured by CHEMICON International, Inc.) with a growth medium. The dilution factors were 100, 1000, 10000, 100000 and 1000000.
A sandwich ELISA that recognized human […] in the VLDL as an antigen was used. First, 100 μL of Moab×LDL Apolipoprotein B (ApoB) (manufactured under MONOSAN®) was dispensed in each well of ELISA PLATE, and the plate was sealed with a sterile seal and then allowed to stand still at 4° C. overnight. In the following, all the dispensing mentioned is for a single well. On the next day, 200 μL of Zepto Block (trade name, manufactured by ZeptoMetrix Corporation) was dispensed, and then the above-noted plate was sealed and allowed to stand still for 2 hours at room temperature for blocking. Subsequently, 100 μL of the medium and the VLDL standard solution were dispensed, and then the above-noted plate was sealed and allowed to stand still for 1 hour at room temperature. Washing with 200 μL of PBST and absorption using an aspirator were carried out five times in total. […] 100 μL of 1M phosphoric acid solution was added to the above-noted mixture solution, and the absorbance at 450 nm was measured using wallac ARVOsx (trade name, PerkinElmer Life Sciences, PerkinElmer, Inc.). […]
On the technique in general: ELISA stands for enzyme-linked immunosorbent assay.

The target in the next assay is T1, human PPARγ (Homo sapiens, UniProt P37231).
T1 construct: expressed in transfected cells; host or cells: CV-1 cells (African green monkey kidney)
T1 sequence (P37231 204-505): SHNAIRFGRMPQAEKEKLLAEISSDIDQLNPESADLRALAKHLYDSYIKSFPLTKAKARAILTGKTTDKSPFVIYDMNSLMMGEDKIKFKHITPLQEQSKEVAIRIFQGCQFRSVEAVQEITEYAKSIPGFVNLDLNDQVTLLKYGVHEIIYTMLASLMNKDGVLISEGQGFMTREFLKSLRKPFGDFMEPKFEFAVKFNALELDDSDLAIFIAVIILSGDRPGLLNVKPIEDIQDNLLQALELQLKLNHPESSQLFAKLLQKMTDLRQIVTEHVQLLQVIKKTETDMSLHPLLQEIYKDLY
In words: PPARγ ligand activity, GAL4-hPPARγ luciferase reporter assay in CV-1 cells. Format: cell-based. As to conditions: for PPARγ ligand activity: 24 h, relative to non-treatment control (DMSO) = 100, average ± standard error. As to the method: CV-1 cells (cultured cells derived from kidneys of male African green monkeys) were implanted on 24-well culture plates so as to be […] and cultured at 37° C. in 5% CO2 for 24 hours. As a medium, DMEM (Dulbecco's Modified Eagle Medium; manufactured by GIBCO) containing 10% FBS (fetal bovine serum) and a 10 mg/mL penicillin streptomycin solution was used. Using the Lipofectamine system (trade name; manufactured by Invitrogen Corporation), pM-hPPARγ and p4× UASg-tk-luc were transfected. The above-noted pM-hPPARγ was a chimeric protein-expression plasmid binding GAL4 gene (amino acid sequence 1-147) and human PPARγ ligand-binding site gene (amino acid sequence 204-505), whereas the above-noted p4× UASg-tk-luc was a reporter plasmid containing four copies of a responsive element (UAS) of GAL 4 upstream of a luciferase gene. About 24 hours after the transfection, samples of aurapten at respective concentrations (0.1, 1.0, 10, 50 and 100 μM) were added to the above-described media, followed by 24 hour incubation. The above-noted samples were prepared by dissolving aurapten in dimethyl sulfoxide (DMSO). Instead of the aurapten, DMSO was added to non-treated control media. After the incubation, measurement was made using a Dual-Luciferase Reporter Gene Assay system (trade name; manufactured by Promega Corporation).
Similarly to the measurement group, as a control group, pM (a plasmid from which PPARγ ligand-binding site gene was removed) was used for measurement instead of pM-hPPARγ. For each sample, the ratio between average luminescence intensities of the measurement group and the control group (n=4) (measurement group/control group) was calculated, and an activity relative to the non-treatment control was determined as the PPARγ ligand activity of the sample.
A general note: Reporter assays use an easily measured gene product as a stand-in for the process of interest.

On to `CC(C)=CCC/C(C)=C/COc1ccc2ccc(=O)oc2c1` [Aurapten, aurapten], for which the “effect on VLDL secretion (in words)” value in assay [1] (10-50 μM, degree of inhibition increased as concentration rose) was “VLDL secretion was inhibited”. For the same molecule, the “VLDL secretion ratio (%)” value in assay [1] (aurapten 10 μM) is 63.1 ± 5.31%; in assay [1] (aurapten 20 μM), 61.6 ± 2.21%; in assay [1] (aurapten 50 μM), 45.6 ± 4.04%. Also, the “effect on PPARγ activity (in words)” value on human PPARγ (0.1-100 μM, increased along with the concentration) is recorded as “improved the activity of PPARγ”. For the same molecule, the PPARγ ligand activity at human PPARγ (aurapten 0.1 μM) is reported as 128 ± 8.5; at human PPARγ (aurapten 1.0 μM), 113 ± 6.9; on human PPARγ (aurapten 10 μM), 146 ± 17.0; on human PPARγ (aurapten 50 μM), 245 ± 56.1; on human PPARγ (aurapten 100 μM), 641 ± 84.2.
